Experiment [1] addresses T1, PrpC (2-methylcitrate synthase, Rv1131) (Mycobacterium tuberculosis, UniProt I6Y9Q3).
T1 construct: full-length, C-terminal 6x-His tag
The experiment can be described thus: biochemical.

The target in experiment [2] is HsaAB (HsaA, of the two-component flavin-dependent hydroxylase) (Mycobacterium tuberculosis, UniProt P9WJA1). The experiment in a line: biochemical.
Chain of HsaAB (HsaA, of the two-component flavin-dependent hydroxylase) (P9WND9 whole entry): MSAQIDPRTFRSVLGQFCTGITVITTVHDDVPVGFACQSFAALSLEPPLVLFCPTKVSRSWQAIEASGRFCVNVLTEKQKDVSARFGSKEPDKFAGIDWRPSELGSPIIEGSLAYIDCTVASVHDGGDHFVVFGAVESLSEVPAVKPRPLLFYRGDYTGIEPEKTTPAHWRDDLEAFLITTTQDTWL
Chain of HsaAB (HsaA, of the two-component flavin-dependent hydroxylase) (P9WJA1 whole entry): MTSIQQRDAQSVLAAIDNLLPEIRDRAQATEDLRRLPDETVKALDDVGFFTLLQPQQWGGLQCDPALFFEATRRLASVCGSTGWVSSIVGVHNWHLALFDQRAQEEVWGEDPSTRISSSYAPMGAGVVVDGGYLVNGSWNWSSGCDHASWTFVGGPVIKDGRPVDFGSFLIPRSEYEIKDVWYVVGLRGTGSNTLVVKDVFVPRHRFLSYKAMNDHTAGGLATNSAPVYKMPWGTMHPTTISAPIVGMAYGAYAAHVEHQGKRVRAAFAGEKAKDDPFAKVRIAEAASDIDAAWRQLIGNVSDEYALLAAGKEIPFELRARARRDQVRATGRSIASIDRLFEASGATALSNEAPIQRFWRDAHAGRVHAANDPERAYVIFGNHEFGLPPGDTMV

T1 sequence (I6Y9Q3 whole entry): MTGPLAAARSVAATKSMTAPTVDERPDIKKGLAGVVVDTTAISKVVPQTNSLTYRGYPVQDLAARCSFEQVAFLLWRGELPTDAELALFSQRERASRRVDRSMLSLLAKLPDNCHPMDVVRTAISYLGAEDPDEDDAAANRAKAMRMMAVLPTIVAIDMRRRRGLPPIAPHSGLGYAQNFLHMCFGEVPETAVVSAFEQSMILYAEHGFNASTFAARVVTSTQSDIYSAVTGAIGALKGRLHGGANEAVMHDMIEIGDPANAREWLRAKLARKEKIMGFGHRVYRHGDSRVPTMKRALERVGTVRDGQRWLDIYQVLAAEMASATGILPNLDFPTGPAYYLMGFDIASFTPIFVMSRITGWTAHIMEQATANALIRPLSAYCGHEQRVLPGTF

For the molecule `Cc1nnc(NS(=O)(=O)c2ccc(NC(=O)c3cc(-c4ccc(Cl)cc4)oc3C(F)(F)F)cc2)s1` [V-13–009920, 5-(4-chlorophenyl)-N-(4-(N-(5-methyl-1,3,4-thiadiazol-2-yl)sulfamoyl)phenyl)-2-(trifluoromethyl)furan-3-carboxamide], the IC50 in experiment [1] came out at 4 ± 1.1 µM.

In experiment [2], `Cc1noc(C)c1C(=O)Nc1nnc(-c2ccccc2)s1` [V-13–011503, 3,5-dimethyl-N-(5-phenyl-1,3,4-thiadiazol-2-yl)-1,2-oxazole-4-carboxamide] displayed an IC50 of 11 ± 2 µM.

`Cc1cc(=O)n2[nH]c(-c3ccc(F)cc3)nc2n1` [V-13–012725, 2-(4-fluorophenyl)-5-methyl-1H-[1,2, 4]triazolo[1,5-a]pyrimidin-7-one] showed an IC50 in experiment [2] of 5 ± 0.8 µM.

The term IC50 denotes the point on the concentration scale where inhibition reaches its midpoint.

(Values after paper PMC4335503, “Novel Inhibitors of Cholesterol Degradation in Mycobacterium tuberculosis Reveal How the Bacterium’s Metabolism Is Constrained by the Intracellular Environment” (PLoS Pathogens, 2015).)
